Data on 3 molecules can be found in ChEMBL document CHEMBL1158401, “Development of CoMFA and CoMSIA models of affinity and selectivity for indole ligands of cannabinoid CB1 and CB2 receptors” (Eur J Med Chem, 2009).

One assay concerns the target Cannabinoid receptor 1 (Rattus norvegicus, UniProt P20272). In words: Displacement of [3H]CP-55940 from CB1 receptor in rat brain by filtration assay. It is filed as tissue-based. In general terms: Displacement assays read how much labelled ligand stays bound in the presence of the test substance.
For a further assay, the target named is Cannabinoid receptor 2 (Homo sapiens, UniProt P34972). The experiment in a line: Displacement of [3H]CP-55940 from human cloned CB2 receptor by filtration assay.
Assay [1] is described as follows: Selectivity ratio of pKi for CB1 receptor in rat brain to pKi for human cloned CB2 receptor. The format is tissue-based.
A short description of assay [2]: Selectivity ratio of pKi for human cloned CB2 receptor to pKi for CB1 receptor in rat brain. The format is tissue-based.

Chain of Cannabinoid receptor 1 (P20272 whole entry): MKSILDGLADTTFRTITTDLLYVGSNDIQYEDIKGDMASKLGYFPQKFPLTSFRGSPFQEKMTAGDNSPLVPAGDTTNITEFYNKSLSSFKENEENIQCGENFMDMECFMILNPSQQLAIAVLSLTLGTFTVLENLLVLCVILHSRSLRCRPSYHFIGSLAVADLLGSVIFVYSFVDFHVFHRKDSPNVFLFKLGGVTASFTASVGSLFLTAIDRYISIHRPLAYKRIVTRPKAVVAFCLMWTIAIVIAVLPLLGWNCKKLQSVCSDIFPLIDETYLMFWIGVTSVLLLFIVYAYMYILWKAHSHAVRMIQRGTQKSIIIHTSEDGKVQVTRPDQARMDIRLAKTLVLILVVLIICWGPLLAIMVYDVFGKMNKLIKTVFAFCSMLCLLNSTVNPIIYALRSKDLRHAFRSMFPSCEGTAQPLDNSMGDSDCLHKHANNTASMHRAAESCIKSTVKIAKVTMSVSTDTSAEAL
Chain of Cannabinoid receptor 2 (P34972 whole entry): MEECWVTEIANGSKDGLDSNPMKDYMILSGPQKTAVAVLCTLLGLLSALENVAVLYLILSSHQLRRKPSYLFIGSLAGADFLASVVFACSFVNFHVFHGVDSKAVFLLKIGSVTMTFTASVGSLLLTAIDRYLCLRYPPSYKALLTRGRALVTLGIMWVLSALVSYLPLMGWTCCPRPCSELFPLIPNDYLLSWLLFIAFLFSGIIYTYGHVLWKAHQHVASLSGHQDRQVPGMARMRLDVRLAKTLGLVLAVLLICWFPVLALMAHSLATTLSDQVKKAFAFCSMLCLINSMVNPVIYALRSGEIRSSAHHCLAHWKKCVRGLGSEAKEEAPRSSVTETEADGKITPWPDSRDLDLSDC

The Ki is a measure of affinity in units of concentration, obtained from inhibition or displacement. A low value points to tighter binding. Consider `CCCn1cc(C(=O)c2cccc3ccccc23)c2ccccc21`, for which the results for the Ki on Cannabinoid receptor 1 and on Cannabinoid receptor 2 were 1050 nM and 170 nM, respectively. Also, the Ratio pKi in assay [1] is 0.883; in assay [2], 1.13.

With `CCCn1c(C)c(C(=O)c2cccc3ccc(C)cc23)c2ccccc21`, the figures for the Ki at Cannabinoid receptor 1 and on Cannabinoid receptor 2 were 344 nM and 16 nM, respectively. For the same molecule, the Ratio pKi was determined as 0.829 in assay [1] and 1.21 in assay [2].

Regarding `CCCCCn1c(C)c(C(=O)c2cccc3ccccc23)c2ccccc21`, the Ki at Cannabinoid receptor 1 was 9.51 nM; at Cannabinoid receptor 2, 2.9 nM. Besides, the Ratio pKi in assay [1] turned out to be 0.94; in assay [2], 1.06.
